This note sets out measurements from patent publication US20240415918A1, “Polypeptide and its use as a CCK receptor agonist/antagonist” (Centre for Regenerative Medicine & Health, Hong Kong …, priority 2021, published 2024).

Where a SMILES comes first, the peptide text is derived from it. [ ]: non-standard residue; d: D form. The star is where a group is joined. dTrp(6-OH) = N[C@H](Cc1c[nH]c2cc(O)ccc12)C(=O)O; Phe(3-Br) = N[C@@H](Cc1cccc(Br)c1)C(=O)O; dNMeW = CN[C@H](Cc1c[nH]c2ccccc12)C(=O)O; Fmoc = O=C(OCC1c2ccccc2-c2ccccc21)*; Nle = CCCC[C@H](N)C(=O)O

Series [1] concerns the target T1, CCK-B receptors (CHO-CCK) (Homo sapiens, UniProt P32239).
T1 construct: expressed in transfected cells; host or cells: CHO (CHO-CCK model cells)
T1 sequence (P32239 1-447): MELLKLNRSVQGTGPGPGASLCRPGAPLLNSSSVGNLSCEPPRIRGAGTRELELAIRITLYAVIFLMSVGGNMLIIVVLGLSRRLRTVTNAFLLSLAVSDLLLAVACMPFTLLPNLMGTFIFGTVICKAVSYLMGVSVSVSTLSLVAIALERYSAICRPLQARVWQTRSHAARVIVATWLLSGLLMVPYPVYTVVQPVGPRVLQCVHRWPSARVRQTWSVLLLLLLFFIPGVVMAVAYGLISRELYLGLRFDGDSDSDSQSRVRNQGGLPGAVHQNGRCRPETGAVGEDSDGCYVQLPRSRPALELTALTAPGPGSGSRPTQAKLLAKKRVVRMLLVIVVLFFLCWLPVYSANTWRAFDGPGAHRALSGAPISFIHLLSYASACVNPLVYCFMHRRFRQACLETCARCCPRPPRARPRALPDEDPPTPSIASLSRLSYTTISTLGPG
Description: Calcium flux (Fluo-8) agonist test on CHO-CCK model cells. The format is cell-based. The conditions noted are these: for Agonistic Activity (%) at 10 μM: compound at 10 μM, percentage of signal of 20 nM CCK8 alone. In outline: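 Agonist-mode Fluo-8 calcium flux read on CHO-CCK cells after dye loading 30 min at 37 °C plus 30 min at room temperature.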
(Calcium flux is commonly read through the fluorescence of an indicator in the cells.)

Series [2] concerns the target T1, CCK-B receptors (CHO-CCK). Description: Calcium flux (Fluo-8) antagonist test on CHO-CCK model cells in presence of CCK8. It counts as cell-based.
For series [3], the system named is memory-deficient mice. The experiment in a line: Morris water maze, memory-deficient mice. The settings on record: intraperitoneal injection, CCK4 four times a day 10 days, HT compounds once a day 8 days. The format is in vivo. An excerpt: Adult memory-deficient mice were housed under standard conditions with free access to food and water. Our Morris water maze experiment for testing memory-deficient mice mainly included two parts: positioning navigation experiment and space exploration experiment. The experimental methods were the same as Example 5. We randomized memory-deficient mice into six groups, with the first group given intraperitoneal injection of the CCK4 solution, the second group given intraperitoneal injection of the solvent of CCK4 solution as a control, the third group given intraperitoneal injection of the compound HT-267 solution, the fourth group given intraperitoneal injection of the compound HT-177 solution, the fifth group given intraperitoneal injection of the compound HT-178 solution, and the sixth group given intraperitoneal injection of the solvent of compound solution as a control. In the positioning navigation experiment, the treatment and training methods of the first and the second groups were the same as those of the first and second groups in Example 5, that is, four times of treatment a day, four times of training a day, for a total of 10 days of training. The treatment and training methods of the third to sixth groups were the same as the third and fourth groups in Example 5, that is, one treatment a day, four times of training a day, for a total of 8 days of training. In the space exploration experiment, the spatial memory ability of mice was tested in the same way for each group.

Series [4] deals with memory-deficient mice. The experiment in a line: New object recognition experiment, memory-deficient mice. The conditions noted are these: intraperitoneal injection. The format is in vivo. An excerpt: The new object recognition experiment is a highly validated method of cognitive memory, designed by Ennaceur & Delacour (1988) based on the exploration characteristics of rodents to new environments, and this model evaluates the memory function of the tested animal based on the length of time that the animal spends in exploring familiar objects it has seen in the environment and new objects it has not seen. […] The experiment is usually divided into three stages: 1. Adaptation period: let the animal be familiar with the experimental environment, and no objects are placed in the experimental box; 2. Familiarization period: place two identical objects in the experimental box and let the mice explore freely for 10 minutes; 3. Test period: put a new object in the experimental box to replace one of the old objects, and the positions of the objects remain unchanged. The exploration of mice was recorded with video, and the time spent in exploring the old and new objects by mice was analyzed, and the proportion of time spent in exploring the new object by mice in the test period accounting for the total time for exploring the objects was calculated, that is, the recognition index of new objects.
Adult memory-deficient mice were housed under standard conditions with free access to food and water. Our new object recognition experiment for testing memory-deficient mice mainly included the adaptation period, the familiarization period, and the test period. The experimental method was the same as Example 12.
We randomized memory-deficient mice into four groups, with one group given intraperitoneal injection of the solvent of drug as the control group, administration group 1 given intraperitoneal injection of the compound HT-267 solution, administration group 2 given intraperitoneal injection of the compound HT-177 solution, and administration group 3 given intraperitoneal injection of the compound HT-178 solution. After the adaptation and familiarization period training, we tested the recognition memory of several groups of mice in the test period experiment.

Series [5] deals with neocortex of memory-deficient mice. Description: Long-term potentiation, in vitro field potential recording of brain slices (MED64), memory-deficient mice. The settings on record: compound injected for five minutes. The format is cell-based. An excerpt:
An in vitro electrophysiological electrical signal recording method was used to investigate whether compound HT-267, compound HT-177, and compound HT-178 can induce long-term potentiation in the neocortex of memory-deficient mice. The MED64 low-noise multi-electrode recording system was used to record the electrical signals of brain slices cultured in vitro.

For series [6], the system named is CCK-B receptor carrying green fluorescence. The settings on record: intraperitoneal injection, visual cortex imaging.
Series [7] can be described thus: in vivo. The conditions noted are these: male, KM, mouse, iv, 1 mg/kg, T1/2.
A short description of series [8]: Pharmacokinetics in KM mice after intravenous administration. The conditions noted are these: male, mouse, plasma, 1 mg/kg.
Setting [9] is: CHO-CCK cells, compound alone, 100% = 20 nM CCK8.
Setting [10] is: compound together with 10 nM CCK8.
[11] abbreviates: CHO-CCK cells, Fluo-8 calcium flux, 100% control = 20 nM CCK8.

As to `CCCC[C@H](NC(=O)[C@H](Cc1c[nH]c2ccccc12)NC(C)=O)C(=O)N[C@@H](CC(=O)O)C(=O)N[C@@H](Cc1cccc(Br)c1)C(N)=O` [HT-177, Ac-Trp-Nle-Asp-Phe(3-Br)-NH2] (Ac-W[Nle]D[Phe(3-Br)]-NH2), in series [1] (CHO-CCK cells, calcium signal), the “agonistic/antagonistic activity on CCK-B receptors (in words)” value is on record as “more active”. In series [1] (setting [9]), the EC50 was 0.056 nM. Besides, the EC50 in series [2] (setting [10]) is 279 nM. For the same molecule, the “proportion of exploration duration in the target quadrant vs control” value in series [3] is “significantly higher than that in the control group”. Further, the “recognition index of new objects vs control” value in series [4] is listed as “significantly higher than that of the control group”. In series [5], the “basal field potential after administration (long-term potentiation)” value was “enhanced, and the enhancement lasted for more than one hour”. The “blood-brain barrier crossing / green fluorescence signal of CCK-B receptor sensor” value in series [6] is “crossed the blood-brain barrier and was bound to the CCK-B receptor”. Further, the half-life in series [7] is 43.3 min. Besides, in series [8], the AUC(0-inf) was 641 ng·h/mL, the peak level (Cmax) was 403 ng/mL and the time to peak (Tmax) amounted to 15 min.

On to `CCCC[C@H](NC(=O)[C@@H](Cc1c[nH]c2ccccc12)NC(C)=O)C(=O)N[C@@H](CC(=O)O)C(=O)N[C@@H](Cc1cccc(Br)c1)C(N)=O` [HT-178, Ac-D-Trp-Nle-Asp-Phe(3-Br)-NH2] (Ac-[dW][Nle]D[Phe(3-Br)]-NH2), for which the figures for the concentration for a half-maximal effect (EC50) in series [1] (setting [9]) and in series [2] (setting [10]) were 2.81 nM and 528 nM, respectively. The “proportion of exploration duration in the target quadrant vs control” value in series [3] is recorded as “significantly higher than that in the control group”. For the same molecule, in series [4], the “recognition index of new objects vs control” value was “significantly higher than that of the control group”. The “basal field potential after administration (long-term potentiation)” value in series [5] was “enhanced, and the enhancement lasted for more than one hour”.

Turning to `CSCC[C@H](NC(=O)[C@H](N)Cc1c[nH]c2ccccc12)C(=O)N[C@@H](CC(=O)O)C(=O)N[C@@H](Cc1ccc(C#N)cc1)C(N)=O` [HT-32, D-Trp-Met-Asp-Phe(4-CN)-NH2], the EC50 was determined as 1130 nM in series [1] (setting [9]) and 2660 nM in series [2] (setting [10]). Also, the “Agonistic Activity (%) at 10 μM” value in series [1] was found to be 57.37%.

Consider `CCCC[C@H](NC(=O)[C@@H](Cc1c[nH]c2cc(O)ccc12)NC(C)=O)C(=O)N[C@@H](CC(=O)O)C(=O)N[C@@H](Cc1cccc(Br)c1)C(N)=O` [HT-227, Ac-(5-HTP)-Nle-Asp-Phe(3-Br)-NH2] (Ac-[dTrp(6-OH)][Nle]D[Phe(3-Br)]-NH2), for which the EC50 is 22 nM in series [1] (setting [11]) and 3400 nM in series [2] (in presence of 10 nM CCK8).

Consider `CSCC[C@H](NC(=O)[C@H](N)Cc1c[nH]c2ccccc12)C(=O)N[C@@H](CC(=O)O)C(=O)N[C@@H](Cc1ccc(Br)cc1)C(N)=O` [HT-34, D-Trp-Met-Asp-Phe(4-Br)-NH2], for which the half-maximal effective concentration (EC50) in series [1] (setting [9]) was 369 nM; in series [2] (setting [10]), 2250 nM. For the same molecule, in series [1], the “Agonistic Activity (%) at 10 μM” value was 98.24%.

On to `CSCC[C@H](NC(=O)[C@@H](Cc1ccccc1)NC(C)=O)C(=O)N[C@@H](CC(=O)O)C(=O)N[C@@H](Cc1cccc(Br)c1)C(N)=O` [HT-180, Ac-D-Phe-Met-Asp-Phe(3-Br)-NH2] (Ac-[dF]MD[Phe(3-Br)]-NH2), for which the figures for the 50% effective concentration (EC50) in series [1] (setting [9]) and in series [2] (setting [10]) were 447 nM and 3560 nM, respectively.

Consider `CSCC[C@H](NC(=O)[C@H](Cc1c[nH]c2ccccc12)NC(=O)CNC(=O)[C@H](CCSC)NC(C)=O)C(N)=O` [HT-210, Ac-Met-Gly-Trp-Met-NH2] (Ac-MGWM-NH2), for which the figures for the half-maximal effective concentration (EC50) in series [1] (setting [11]) and in series [2] (in presence of 10 nM CCK8) were 398 nM and 6450 nM, respectively.

For the molecule `CCCC[C@H](NC(=O)[C@@H](Cc1c[nH]c2ccccc12)N(C)C(=O)OCC1c2ccccc2-c2ccccc21)C(=O)N[C@@H](CC(=O)OC)C(=O)N[C@@H](Cc1cccc(Br)c1)C(N)=O` [HT-253, Fmoc-(N-Me-Trp)-Nle-Asp(O-Me)-Phe(3-Br)-NH2] (Fmoc-[dNMeW][Nle]D(OMe)[Phe(3-Br)]-NH2), the EC50 in series [1] (setting [11]) was determined as 744 nM; in series [2] (in presence of 10 nM CCK8), 1920 nM.

For `CSCC[C@H](NC(=O)[C@H](Cc1c[nH]c2ccccc12)NC(C)=O)C(=O)N[C@@H](CC(=O)O)C(=O)N[C@@H](CC(C)C)C(N)=O` [HT-192, Ac-Trp-Met-Asp-Leu-NH2] (Ac-WMDL-NH2), the EC50 is above 10000 nM in series [1] (CHO-CCK cells, compound alone, bound in μM) and 8760 nM in series [2] (setting [10]).

For the molecule `CCCC[C@H](NC(=O)[C@H](Cc1c[nH]c2ccccc12)NC(C)=O)C(=O)N[C@@H](CC(=O)O)C(=O)N[C@@H](Cc1cn(C)c2ccccc12)C(N)=O` [HT-228, Ac-D-Trp-Nle-Asp-(1-Me-Trp)-NH2], the EC50 in series [1] (setting [11]) worked out at 262 nM; in series [2] (in presence of 10 nM CCK8) it was 3070 nM.

For `COC(=O)C[C@H](NC(=O)[C@H](CCSC)NC(=O)[C@H](N)Cc1c[nH]c2ccccc12)C(=O)N[C@@H](Cc1cc(F)cc(F)c1)C(N)=O` [HT-90, D-Trp-Met-Asp(Ome)-Phe(3,5-DiF)-NH2], the 50% effective concentration (EC50) in series [1] (setting [9]) was 9300 nM; in series [2] (setting [10]) it was 5910 nM. Also, the “Agonistic Activity (%) at 10 μM” value in series [1] was found to be 59.76%.

Usually EC50 stands for the concentration at which the effect is half-maximal. The half-life is the time in which the quantity being followed falls by half. The term AUC(0-inf) denotes the area under the concentration-time curve extrapolated to infinity. By Cmax is commonly meant the highest concentration seen after dosing. By Tmax is commonly meant the time from dosing to the highest level.
